Several values for one entry are separate records, joined by “and”; a condition that tells them apart may be missing. Equal entries are not always repeated.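 1) Cells in 96-well plates. 2) Compound, 48 h, 5 concentrations. 3) Linear interpolation between surrounding doses. 4) Unreached endpoint = highest concentration. GI50 = concentration required for 50% inhibition of growth. TGI denotes the concentration required for complete inhibition of growth.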
Columns and labels:
Assay in all cases: NCI tumour cell line growth inhibition, 48 h
HT29 colon = tested on: HT29 colon
RPMI-8226 leukemia = tested on: RPMI-8226 leukemia
MOLT-4 leukemia = tested on: MOLT-4 leukemia
HCT-116 colon = tested on: HCT-116 colon
OVCAR-8 ovarian = tested on: OVCAR-8 ovarian
SR leukemia = tested on: SR leukemia
LOX IMVI melanoma = tested on: LOX IMVI melanoma
UACC-257 melanoma = tested on: UACC-257 melanoma
U251 CNS = tested on: U251 CNS
SF-295 CNS = tested on: SF-295 CNS
MDA-MB-231 breast = tested on: MDA-MB-231 breast
HL-60(TB) leukemia = tested on: HL-60(TB) leukemia

## COC(=O)CCC(=O)c1ccc2c(c1)CC1(Cc3ccccc3C1)C2
HT29 colon
  TGI: 43.9 µM
RPMI-8226 leukemia
  TGI: > 100 µM
MOLT-4 leukemia
  TGI: 52.6 µM
HCT-116 colon
  TGI: > 100 µM
OVCAR-8 ovarian
  TGI: > 100 µM
SR leukemia
  TGI: 34 µM
LOX IMVI melanoma
  TGI: > 100 µM
UACC-257 melanoma
  TGI: 84.2 µM
U251 CNS
  TGI: > 100 µM
SF-295 CNS
  TGI: > 100 µM
MDA-MB-231 breast
  TGI: > 100 µM

## COc1cc2oc(=O)cc(C)c2c(OC)c1OC
HT29 colon
  TGI: > 100 µM
RPMI-8226 leukemia
  TGI: > 100 µM
MOLT-4 leukemia
  TGI: > 100 µM
HCT-116 colon
  TGI: > 100 µM
OVCAR-8 ovarian
  TGI: > 100 µM
SR leukemia
  TGI: > 100 µM
LOX IMVI melanoma
  TGI: > 100 µM
UACC-257 melanoma
  TGI: > 100 µM
U251 CNS
  TGI: > 100 µM
SF-295 CNS
  TGI: > 100 µM
MDA-MB-231 breast
  TGI: > 100 µM

## C=C(C)[C@H]1C=C[C@@H](OC(C)=O)[C@@]2(COC(C)=O)[C@H](OC(=O)CCC)[C@H]3[C@@H](OC(C)=O)[C@@H](C)C[C@]3(O)C(=O)[C@@](C)(OC(C)=O)[C@H]12
HT29 colon
  TGI: > 100 µM
RPMI-8226 leukemia
  TGI: 66.7 µM
MOLT-4 leukemia
  TGI: > 100 µM
HCT-116 colon
  TGI: > 100 µM
HL-60(TB) leukemia
  TGI: > 100 µM
OVCAR-8 ovarian
  TGI: > 100 µM
SR leukemia
  TGI: > 100 µM
LOX IMVI melanoma
  TGI: > 100 µM
UACC-257 melanoma
  TGI: > 100 µM
U251 CNS
  TGI: > 100 µM
MDA-MB-231 breast
  TGI: > 100 µM

## COC(=O)c1cc(OCc2cc(OCc3ccc(Br)cc3)cc(OCc3ccc(Br)cc3)c2)cc(OCc2cc(OCc3ccc(Br)cc3)cc(OCc3ccc(Br)cc3)c2)c1
RPMI-8226 leukemia
  TGI: > 100 µM
MOLT-4 leukemia
  TGI: > 100 µM
HCT-116 colon
  TGI: > 100 µM
UACC-257 melanoma
  TGI: > 100 µM
U251 CNS
  TGI: > 100 µM
SF-295 CNS
  TGI: > 100 µM
MDA-MB-231 breast
  TGI: > 100 µM

## CNC(=S)c1nnsc1N
RPMI-8226 leukemia
  TGI: > 100 µM
MOLT-4 leukemia
  TGI: > 100 µM
HCT-116 colon
  TGI: > 100 µM
HL-60(TB) leukemia
  TGI: 0.0686 µM
OVCAR-8 ovarian
  TGI: > 100 µM
LOX IMVI melanoma
  TGI: > 100 µM
UACC-257 melanoma
  TGI: > 100 µM
U251 CNS
  TGI: > 100 µM
SF-295 CNS
  TGI: > 100 µM
MDA-MB-231 breast
  TGI: > 100 µM

## COc1ccc(-c2c(C#N)c(N)n(C3OC(COC(C)=O)C(OC(C)=O)C(OC(C)=O)C3OC(C)=O)c(=S)c2C#N)cc1 (stereo unspecified)
HT29 colon
  GI50: 84.7 µM and 36.2 µM
  TGI: > 100 µM
RPMI-8226 leukemia
  TGI: > 100 µM and 68.8 µM
MOLT-4 leukemia
  GI50: > 100 µM and 37 µM
  TGI: > 100 µM and 75.1 µM
HCT-116 colon
  TGI: > 100 µM
HL-60(TB) leukemia
  GI50: > 100 µM and 27.9 µM
  TGI: > 100 µM and 48.5 µM
OVCAR-8 ovarian
  TGI: > 100 µM and 75.4 µM
LOX IMVI melanoma
  TGI: > 100 µM
UACC-257 melanoma
  TGI: > 100 µM and 44.5 µM
U251 CNS
  TGI: > 100 µM
SF-295 CNS
  TGI: > 100 µM
MDA-MB-231 breast
  TGI: > 100 µM and 71.2 µM

## NCCCCNCCCNC(=O)c1csc(-c2nc(CCN)sc2Cl)n1
HT29 colon
  TGI: > 100 µM
RPMI-8226 leukemia
  TGI: > 100 µM
MOLT-4 leukemia
  TGI: > 100 µM
HCT-116 colon
  TGI: > 100 µM
HL-60(TB) leukemia
  TGI: > 100 µM
OVCAR-8 ovarian
  TGI: > 100 µM
UACC-257 melanoma
  TGI: > 100 µM
U251 CNS
  TGI: > 100 µM
SF-295 CNS
  TGI: > 100 µM

## CC(C)N=C(NC#N)NS(=O)(=O)c1cnccc1NC1CCCCCCC1
HT29 colon
  TGI: > 100 µM
RPMI-8226 leukemia
  TGI: > 100 µM
MOLT-4 leukemia
  TGI: > 100 µM
HCT-116 colon
  TGI: > 100 µM
OVCAR-8 ovarian
  TGI: > 100 µM
SR leukemia
  TGI: > 100 µM
UACC-257 melanoma
  TGI: > 100 µM
U251 CNS
  TGI: > 100 µM
SF-295 CNS
  TGI: > 100 µM
MDA-MB-231 breast
  TGI: > 100 µM

## CCN(CC)C(=O)N1CN(c2ccccc2)C2(CCN(CCCC3(c4ccc(F)cc4)OCCO3)CC2)C1=O
RPMI-8226 leukemia
  TGI: 30.1 µM
MOLT-4 leukemia
  TGI: 34.9 µM
HCT-116 colon
  TGI: 23.9 µM
HL-60(TB) leukemia
  TGI: 27.9 µM
OVCAR-8 ovarian
  TGI: 44.4 µM
SR leukemia
  TGI: 47.5 µM
LOX IMVI melanoma
  TGI: 26.2 µM
UACC-257 melanoma
  TGI: 26.3 µM
U251 CNS
  TGI: 30.2 µM
SF-295 CNS
  TGI: 41.3 µM

## Cc1ccc(S(=O)(=O)N/N=C2/C3CC4CCC2C4C3)cc1 (stereo unspecified)
HT29 colon
  TGI: > 100 µM
RPMI-8226 leukemia
  TGI: > 100 µM
HCT-116 colon
  TGI: > 100 µM
OVCAR-8 ovarian
  TGI: > 100 µM
LOX IMVI melanoma
  TGI: > 100 µM
UACC-257 melanoma
  TGI: > 100 µM
U251 CNS
  TGI: > 100 µM
SF-295 CNS
  TGI: > 100 µM
MDA-MB-231 breast
  TGI: > 100 µM

## COC(=O)CC(c1ccccc1)C(C#N)(OP1(=O)OC(c2ccccc2)C(C)N1C)c1ccccc1 (stereo unspecified)
HT29 colon
  TGI: > 100 µM
RPMI-8226 leukemia
  TGI: > 100 µM
MOLT-4 leukemia
  TGI: 64.6 µM
HCT-116 colon
  TGI: > 100 µM
HL-60(TB) leukemia
  TGI: 72.6 µM
OVCAR-8 ovarian
  TGI: > 100 µM
LOX IMVI melanoma
  TGI: > 100 µM
UACC-257 melanoma
  TGI: > 100 µM
U251 CNS
  TGI: > 100 µM
SF-295 CNS
  TGI: > 100 µM
MDA-MB-231 breast
  TGI: > 100 µM

## CSc1cc(Cl)c(C)cc1S(=O)(=O)NC(=O)NNc1cnc2ccccc2n1
HT29 colon
  TGI: > 100 µM
MOLT-4 leukemia
  TGI: 56.8 µM
HCT-116 colon
  TGI: > 100 µM
OVCAR-8 ovarian
  TGI: > 100 µM
SR leukemia
  TGI: > 100 µM
LOX IMVI melanoma
  TGI: > 100 µM
U251 CNS
  TGI: > 100 µM
SF-295 CNS
  TGI: > 100 µM
MDA-MB-231 breast
  TGI: > 100 µM

## Cc1nc2ccccc2n1Cc1ccc(NC(=S)NC2CCCCC2)cc1
HT29 colon
  TGI: > 100 µM
RPMI-8226 leukemia
  TGI: > 66.4 µM
MOLT-4 leukemia
  TGI: > 100 µM
HCT-116 colon
  TGI: > 100 µM
HL-60(TB) leukemia
  TGI: > 100 µM
OVCAR-8 ovarian
  TGI: > 100 µM
LOX IMVI melanoma
  TGI: > 100 µM
UACC-257 melanoma
  TGI: > 95.1 µM
U251 CNS
  TGI: > 100 µM
SF-295 CNS
  TGI: > 88.3 µM
MDA-MB-231 breast
  TGI: > 100 µM

## C=CCOC1=C(OC(C)=O)C(C2COC(C)(C)O2)OC1=O (stereo unspecified)
HT29 colon
  TGI: 38.4 µM
RPMI-8226 leukemia
  TGI: 61 µM
MOLT-4 leukemia
  TGI: 43.8 µM
HCT-116 colon
  TGI: 36 µM
HL-60(TB) leukemia
  TGI: 40.3 µM
OVCAR-8 ovarian
  TGI: > 100 µM
LOX IMVI melanoma
  TGI: 24 µM
UACC-257 melanoma
  TGI: 39.7 µM
U251 CNS
  TGI: 72.5 µM
SF-295 CNS
  TGI: > 100 µM
MDA-MB-231 breast
  TGI: 34.5 µM

## CSc1nnc2n1-c1ccccc1SCC2
HT29 colon
  TGI: > 100 µM
RPMI-8226 leukemia
  TGI: > 100 µM
MOLT-4 leukemia
  TGI: > 100 µM
HCT-116 colon
  TGI: > 100 µM
HL-60(TB) leukemia
  TGI: > 100 µM
OVCAR-8 ovarian
  TGI: > 100 µM
SR leukemia
  TGI: > 100 µM
LOX IMVI melanoma
  TGI: > 100 µM
UACC-257 melanoma
  TGI: > 100 µM
U251 CNS
  TGI: > 100 µM
SF-295 CNS
  TGI: > 100 µM

## CN=C(NC#N)NCc1ccccc1
HT29 colon
  TGI: > 100 µM
RPMI-8226 leukemia
  TGI: > 100 µM
MOLT-4 leukemia
  TGI: > 100 µM
HCT-116 colon
  TGI: > 100 µM
HL-60(TB) leukemia
  TGI: > 100 µM
OVCAR-8 ovarian
  TGI: > 100 µM
SR leukemia
  TGI: > 100 µM
LOX IMVI melanoma
  TGI: > 100 µM
UACC-257 melanoma
  TGI: > 100 µM
U251 CNS
  TGI: > 100 µM
SF-295 CNS
  TGI: > 100 µM

From PubChem BioAssay (NCI)
